From ChEMBL document CHEMBL1629584, “Inactivation of KsgA, a 16S rRNA methyltransferase, causes vigorous emergence of mutants with high-level kasugamycin resistance” (2009)
Converted amounts (≈) assume the structure as drawn.

Legend:
Assay type in all cases: functional
Bacillus subtilis [1] = assay: Antibacterial activity against Bacillus subtilis isolate KO-875 KsgA mutant and harboring 19G-T speD mutant and expressing amino acid exchange at G7Win speD gene after 2 days; conditions: isolate KO-875, 48 h
Bacillus subtilis [2] = assay: Antibacterial activity against Bacillus subtilis isolate 16 harboring 181G-GG KsgA mutant and expressing amino acid exchange at A61G, Glu 77- stop codon in KsgA gene
Bacillus subtilis [3] = assay: Antibacterial activity against Bacillus subtilis isolate 8 harboring 515G-GGG KsgA mutant and expressing amino acid exchange at S173A, Met 188 -stop codon in KsgA gene
Bacillus subtilis [4] = assay: Antibacterial activity against Bacillus subtilis isolate 2 harboring 708-717 deficient KsgA and expressing amino acid exchange at K235S, Leu240-stop codon in KsgA gene
Bacillus subtilis [5] = assay: Antibacterial activity against Bacillus subtilis isolate 3 harboring 301C-T KsgA and expressing amino acid exchange at Gln101-stop codon in KsgA gene
Bacillus subtilis [6] = assay: Antibacterial activity against Bacillus subtilis isolate 11 harboring 274-295 deficient KsgA mutant and expressing amino acid exchange at P92F, Thr 97- stop codon in KsgA gene
Bacillus subtilis [7] = assay: Antibacterial activity against Bacillus subtilis isolate 12 harboring 597-615 deficient KsgA mutant and expressing amino acid exchange at N200F, Asp 202- stop codon in KsgA gene
Bacillus subtilis [8] = assay: Antibacterial activity against Bacillus subtilis RIK543 after 15 hrs; conditions: RIK543, 15 h
Bacillus subtilis [9] = assay: Antibacterial activity against Bacillus subtilis isolate 15 harboring 324C-CTC KsgA mutant and expressing amino acid exchange at K109S, Val 125 - stop codon in KsgA gene
Bacillus subtilis [10] = assay: Antibacterial activity against wild-type Bacillus subtilis 168 after 15 hrs; conditions: subsp. subtilis str. 168, 15 h
Escherichia coli = assay: Antibacterial activity against Escherichia coli BW25113 after 15 hrs; conditions: BW25113, 15 h
Bacillus subtilis [11] = assay: Antibacterial activity against Bacillus subtilis isolate 1 harboring 253-261 deficient KsgA and expressing amino acid exchange at 85-87 Ile, Leu, Lys-deletionin KsgA gene
Bacillus subtilis [12] = assay: Antibacterial activity against Bacillus subtilis isolate 18 harboring 495-525 deficient KsgA mutant and expressing amino acid exchange at N165E, Ala 177- stop codon in KsgA gene
Bacillus subtilis [13] = assay: Antibacterial activity against Bacillus subtilis isolate 7 harboring 198T-TT KsgA mutant and expressing amino acid exchange at A67C, Glu 77- stop codon in KsgA gene
Bacillus subtilis [14] = assay: Antibacterial activity against Bacillus subtilis isolate KO-878 KsgA mutant and harboring 193T-A speD mutant and expressing amino acid exchange at S65T in speD gene after 2 days; conditions: isolate KO-878, 48 h
Bacillus subtilis [15] = assay: Antibacterial activity against Bacillus subtilis isolate 6 harboring 272C-G KsgA mutant and expressing amino acid exchange at Ser 91 -stop codon in KsgA gene
Bacillus subtilis [16] = assay: Antibacterial activity against Bacillus subtilis isolate 17 harboring 709-850 deficient KsgA mutant and expressing amino acid exchange at K237L in KsgA gene
Bacillus subtilis [17] = assay: Antibacterial activity against Bacillus subtilis isolate 10 harboring 706C-T KsgA mutant and expressing amino acid exchange at R236C in KsgA gene
Bacillus subtilis [18] = assay: Antibacterial activity against Bacillus subtilis isolate KO-877 KsgA mutant and harboring 191A-T speD mutant and expressing amino acid exchange at G64Vin speD gene after 2 days; conditions: isolate KO-877, 48 h
Bacillus subtilis [19] = assay: Antibacterial activity against Bacillus subtilis isolate KO-879 KsgA mutant and harboring 236G-T speD mutant and expressing amino acid exchange at S79I in speD gene after 2 days; conditions: isolate KO-879, 48 h
Bacillus subtilis [20] = assay: Antibacterial activity against Bacillus subtilis isolate KO-876 KsgA mutant and harboring 22C-GT speD mutant after 2 days; conditions: isolate KO-876, 48 h
Bacillus subtilis [21] = assay: Antibacterial activity against Bacillus subtilis isolate KO-894 speD mutant after 2 days; conditions: isolate KO-894, 48 h
Bacillus subtilis [22] = assay: Antibacterial activity against Bacillus subtilis isolate 9 harboring 515G-GG KsgA mutant and expressing amino acid exchange at S173L,Asn 200 -stop codon in KsgA gene
Bacillus subtilis [23] = assay: Antibacterial activity against Bacillus subtilis isolate 19 harboring 230A-G KsgA mutant and expressing amino acid exchange at A61G, E77K in KsgA gene
Bacillus subtilis [24] = assay: Antibacterial activity against Bacillus subtilis isolate 14 harboring 608C-T KsgA mutant and expressing amino acid exchange at S203F in KsgA gene
Bacillus subtilis [25] = assay: Antibacterial activity against Bacillus subtilis isolate 4 harboring 709-850 deficient KsgA and expressing amino acid exchange at K237L in KsgA gene
Bacillus subtilis [26] = assay: Antibacterial activity against Bacillus subtilis isolate KO-847 KsgA mutant after 2 days; conditions: isolate KO-847, 48 h
Bacillus subtilis [27] = assay: Antibacterial activity against Bacillus subtilis isolate 5 harboring 478-492 deficient KsgA and expressing amino acid exchange at Glu 160, Ala 164 deletion in KsgA gene
Bacillus subtilis [28] = assay: Antibacterial activity against Bacillus subtilis isolate 13 harboring 393C-G KsgA mutant and expressing amino acid exchange at Tyr 131- stop codon in KsgA gene

For `C[C@H]1O[C@H](O[C@H]2[C@H](O)[C@@H](O)[C@@H](O)[C@H](O)[C@@H]2O)[C@@H](N)C[C@@H]1NC(=N)C(=O)O` [KASUGAMYCIN], the MIC (Bacillus subtilis [1]) was 15000 µg/mL (≈ 39.5 mM), the MIC (Bacillus subtilis [2]) was 1500 µg/mL (≈ 3.95 mM) and the MIC (Bacillus subtilis [3]) was 1500 µg/mL (≈ 3.95 mM). For the same molecule, the MIC (Bacillus subtilis [4]) was 1500 µg/mL (≈ 3.95 mM), the MIC (Bacillus subtilis [5]) was 1500 µg/mL (≈ 3.95 mM) and the MIC (Bacillus subtilis [6]) was 1500 µg/mL (≈ 3.95 mM). For the same molecule, the MIC (Bacillus subtilis [7]) was 1500 µg/mL (≈ 3.95 mM), the MIC (Bacillus subtilis [8]) was 500 µg/mL (≈ 1.32 mM) and the MIC (Bacillus subtilis [9]) was 1500 µg/mL (≈ 3.95 mM). For the same molecule, the MIC (Bacillus subtilis [10]) was 1500 µg/mL (≈ 3.95 mM), the MIC (Escherichia coli) was 200 µg/mL (≈ 0.527 mM) and the MIC (Bacillus subtilis [11]) was 1500 µg/mL (≈ 3.95 mM). The MIC (Bacillus subtilis [12]) was 1500 µg/mL (≈ 3.95 mM), the MIC (Bacillus subtilis [13]) was 1500 µg/mL (≈ 3.95 mM) and the MIC (Bacillus subtilis [14]) was 15000 µg/mL (≈ 39.5 mM). For the same molecule, the MIC (Bacillus subtilis [15]) was 1500 µg/mL (≈ 3.95 mM), the MIC (Bacillus subtilis [16]) was 1500 µg/mL (≈ 3.95 mM) and the MIC (Bacillus subtilis [17]) was 1500 µg/mL (≈ 3.95 mM). The MIC (Bacillus subtilis [18]) was 15000 µg/mL (≈ 39.5 mM), the MIC (Bacillus subtilis [19]) was 15000 µg/mL (≈ 39.5 mM) and the MIC (Bacillus subtilis [20]) was 15000 µg/mL (≈ 39.5 mM). The MIC (Bacillus subtilis [21]) was 4000 µg/mL (≈ 10.5 mM), the MIC (Bacillus subtilis [22]) was 1500 µg/mL (≈ 3.95 mM) and the MIC (Bacillus subtilis [23]) was 1500 µg/mL (≈ 3.95 mM). For the same molecule, the MIC (Bacillus subtilis [24]) was 1500 µg/mL (≈ 3.95 mM), the MIC (Bacillus subtilis [25]) was 1500 µg/mL (≈ 3.95 mM) and the MIC (Bacillus subtilis [26]) was 5000 µg/mL (≈ 13.2 mM). For the same molecule, the MIC (Bacillus subtilis [27]) was 1500 µg/mL (≈ 3.95 mM) and the MIC (Bacillus subtilis [28]) was 1500 µg/mL (≈ 3.95 mM).

In the case of `CO[C@H]1/C=C/O[C@@]2(C)Oc3c(C)c(O)c4c(O)c(c(/C=N/N5CCN(C)CC5)c(O)c4c3C2=O)NC(=O)/C(C)=C\C=C\[C@H](C)[C@H](O)[C@@H](C)[C@@H](O)[C@@H](C)[C@H](OC(C)=O)[C@@H]1C` [RIFAMPIN], the MIC (Bacillus subtilis [8]) is reported as 0.01 µg/mL (≈ 1.22e-05 mM) and the MIC (Bacillus subtilis [10]) is reported as 0.1 µg/mL (≈ 0.000122 mM).

Molecule `CN[C@@H]1[C@H](O[C@H]2[C@H](O[C@H]3[C@H](O)[C@@H](O)[C@H](N=C(N)N)[C@@H](O)[C@@H]3N=C(N)N)O[C@@H](C)[C@]2(O)C=O)O[C@@H](CO)[C@H](O)[C@H]1O` [STREPTOMYCIN] has an MIC (Bacillus subtilis [8]) of 5 µg/mL (≈ 0.0086 mM) and an MIC (Bacillus subtilis [10]) of 15 µg/mL (≈ 0.0258 mM).

With `C=C(NC(=O)C(=C)NC(=O)c1csc(C2=N[C@@H]3c4csc(n4)[C@H]4NC(=O)c5csc(n5)[C@H]([C@](C)(O)[C@@H](C)O)NC(=O)[C@H]5CSC(=N5)/C(=C/C)NC(=O)[C@H]([C@@H](C)O)NC(=O)c5csc(n5)[C@]3(CC2)NC(=O)[C@H](C)NC(=O)C(=C)NC(=O)[C@H](C)NC(=O)[C@H]([C@@H](C)CC)N[C@@H]2C=Cc3c([C@H](C)O)cc(nc3[C@H]2O)C(=O)O[C@@H]4C)n1)C(N)=O` [THIOSTREPTON] the MIC (Bacillus subtilis [8]) was 0.02 µg/mL (≈ 1.2e-05 mM) and the MIC (Bacillus subtilis [10]) was 0.04 µg/mL (≈ 2.4e-05 mM).
